For orientation: Ki means a dissociation constant, usually derived from enzyme kinetics or from competition with a known ligand.

The target of this test is Kappa-type opioid receptor (Cavia porcellus, UniProt P41144). The experiment in a line: Inhibition of [3H]U-69593 binding towards Opioid receptor kappa 1 in guinea pig brain homogenates. Type of test: tissue-based.
Chain of Kappa-type opioid receptor (P41144 whole entry): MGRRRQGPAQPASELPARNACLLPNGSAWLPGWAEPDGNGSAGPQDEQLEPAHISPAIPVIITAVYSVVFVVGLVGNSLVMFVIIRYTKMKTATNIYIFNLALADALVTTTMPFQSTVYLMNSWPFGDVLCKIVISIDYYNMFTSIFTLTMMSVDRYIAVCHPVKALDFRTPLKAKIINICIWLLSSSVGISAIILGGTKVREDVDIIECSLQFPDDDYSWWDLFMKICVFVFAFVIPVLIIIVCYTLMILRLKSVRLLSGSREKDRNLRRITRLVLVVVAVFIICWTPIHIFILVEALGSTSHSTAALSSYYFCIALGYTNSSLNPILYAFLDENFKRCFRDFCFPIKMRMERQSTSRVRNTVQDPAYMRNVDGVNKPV

Molecule `C[C@H]1C2Cc3ccc(O)cc3[C@@]1(C)CCN2CC1C[C@@]1(C(=O)Nc1ccccc1)c1ccccc1` (some centres not stated) returned a Ki of 2350 nM.

In the case of `CC(=O)OC[C@@]1(c2ccccc2)CC1CN1CC[C@]2(C)c3cc(O)ccc3CC1[C@@H]2C` (some centres not stated), the Ki worked out at 228 nM.

The values above are taken from ChEMBL document CHEMBL1135635, “Kappa-opioid receptor model in a phospholipid bilayer: molecular dynamics simulation” (J Med Chem, 2002).
